From patent publication US4452782A, “Pentadecapeptide” (Hoffmann-La Roche Inc., priority 1979, dated 1984) come the findings set out here.

The subject of one test is C. albicans. As to the kind of experiment: Protective activity against lethal infection in mice immunosuppressed with 5-fluorouracil. The conditions noted are these: 5-fluorouracil 25 mg/kg/day × 10 i.p. alone; 1 × 10^5 i.v. The class given is in vivo. On the procedure: (§1) The effect was further extended against microbial infections in mice immunosuppressed by treatment of a cytostatic. Mice pretreated daily for 10 times with 5-fluorouracil (25 mg/kg/day, i.p.) were infected by either Ps. aeruginosa or C. albicans and the survivals were recorded on day 15.
(§2) C. albicans and Ps. aeruginosa were infected intravenously with 1 ×

A further test has as its system Ps. aeruginosa. The test is described as above. The conditions noted are these: 5-fluorouracil 25 mg/kg/day × 10 i.p. alone; 4 × 10^4 i.v. In kind it is in vivo. On the procedure:
as §1, §2

For test [1], the system named is Lewis lung carcinoma. As to the kind of experiment: Survival of mice with Lewis lung carcinoma in combination with cyclophosphamide and surgery (Table 8). The conditions noted are these: cyclophosphamide 50 mg/kg i.p. × 1 alone. In kind it is in vivo. On the procedure:
(§3) Lewis lung carcinoma (1×10^6) was implanted into footpad and at day 10 the advanced tumor was excised by amputation of the leg with the tumor developed. Then the mice were treated with cyclophosphamide (50 mg/kg, i.p.) 24 hrs later and at day 27 the dry weight of the tumor metastasized to lung was measured.
On the other hand, the effect of the peptide on survival of the mice, which were amputated the advanced tumor and treated with cyclophosphamide, was examined. The experimental conditions were identical to the above experiment except that the advanced tumor was excised at day 12 and the mice were treated with cyclophosphamide at day 13.

In test [2] the test system is Lewis lung carcinoma. As to the kind of experiment: Suppression of growth of Lewis lung carcinoma metastasized to lung after amputation and cyclophosphamide (Table 7). The class given is in vivo, mice. The conditions noted are these: cyclophosphamide 50 mg/kg i.p. × 1 alone after amputation; day 27. As for the experimental part: The major problem in the treatment of cancer patient after surgical elimination of tumor is the prevention of metastasis of the tumor.
as §3

Take `O=c1[nH]cc(F)c(=O)[nH]1` [5-fluorouracil]: the “Suppressive activity against lethal infection (survivals at day 15)” value is recorded as 5/35 with C. albicans and 2/7 in the test with Ps. aeruginosa.
Regarding `O=P1(N(CCCl)CCCl)NCCCO1` (centres unmarked) [Cyclophosphamide], in the test on Lewis lung carcinoma [1], the “Survivals at day 100” value is recorded as 2/12. For the same compound, the Mean survival days in the test with Lewis lung carcinoma [1] (days after tumor implantation) is 32.6 ± 3.2 days. In the test with Lewis lung carcinoma [2], the “dry weight of the tumor metastasized (mg ± S.D.)” value is 45.9 ± 30.6 mg.
